{"source": "patent US8652776B2", "about": "“Prediction of QT prolongation based on SNP genotype” (Vanda Pharmaceuticals, Inc., priority 2007, dated 2014)", "key": {"[1]": {"tested_on": "patients treated with iloperidone", "assay": "Occurrence of torsades de pointes in patients treated with iloperidone", "type": "in vivo, human", "conditions": "any patient treated with iloperidone, to date"}, "[2]": {"tested_on": "patients with schizophrenia", "assay": "Change in QTcF from baseline to Day 14 by SNP genotype, phase 3 clinical trial of iloperidone (WGAS)", "type": "in vivo, human", "conditions": "iloperidone 12 mg bid", "experimental": "To identify new genetic markers of drug-induced QT prolongation, a whole genome association study (WGAS) was conducted as part of a phase 3 clinical trial of iloperidone. The clinical trial was a randomized, double-blind, placebo-, and ziprasidone-controlled multicenter study evaluating the efficacy, safety, and tolerability of a 24 mg/day dose of iloperidone administered twice a day (bid) for 28 days to patients with schizophrenia in acute exacerbation.\nTherefore, the change in QT interval was calculated between baseline and Day 14. The Fridericia correction (QTcF) was applied, and a generalized linear model (GLM) statistical analysis using baseline as a covariate was performed. […] Analysis was focused on those SNPs located within or close to genes (<10 kb away) in which the minor genotype group included at least 10% of the patients. Six SNPs of interest were identified in the CERKL, SLCO3A1, BRUNOL4, NRG3, NUBPL, and PALLD genes (Table 1). The possibility that changes in the QT interval reflect drug concentration differences could not be excluded because drug exposure at the time of electrocardiography (ECG) was not known. However, the six SNPs identified here are within genes not expected to play roles in drug absorption, metabolism, or excretion. For these SNPs, genotype calls generated by the microarray set were confirmed by sequencing on a random subset of DNA samples of iloperidone-treated patients. The association of a particular genotype class with lower or higher increased QT was consistent between men and women and across races. Additional SNPs with statistical association at P<0.001 were observed within or near the CERKL, SLCO3A1, NRG3, NUBPL, and PALLD genes (FIGS. 1a-f).\nPatients 18 to 65 years of age with diagnoses of schizophrenia according to the Diagnostic and Statistical Manual of Mental Disorders, 4th Edition (disorganized [295.10], paranoid [295.30], or undifferentiated [295.90]) were eligible to participate in the trial. Patients were randomly assigned to iloperidone 12 mg twice a day (bid), ziprasidone 80 mg bid (active control), or placebo. Doses were titrated to their respective target doses from Days 1 to 7 and were maintained until Day 28. Participation in the pharmacogenomic analysis was optional. Blood samples were collected, and DNA was extracted (Quest Diagnostics Laboratories, Van Nuys, Calif.) from 432 of 457 patients who consented to the optional WGAS, including 218 patients administered iloperidone. Of these iloperidone-treated patients, 183 (152 men and 31 women) with QT data at Day 14 were part of the WGAS reported here. They included 16 Asian, 69 white, and 91 black or African American patients and 7 patients of other ethnic origins.\nTwelve-lead ECG was performed at baseline and on Days 7, 14, 21, and 28. Except at baseline, ECG was performed 2 hours after patients had received the morning dose of study drug. ECG was performed 3 times at baseline and on Day 14, with single measurements obtained for other visits. QTc interval was calculated based on QTcF. The effect of iloperidone on QTc interval was measured by the mean change from baseline in Qtc.\nGenetic markers associated with prolongation of QTcF were identified through GLM analysis. The dependent variable was mean change from baseline to Day 14 because the effects on QT were greatest by Day 14, when iloperidone achieves steady state concentration. Baseline QTcF was used as a covariate, and genotype was used as the classifiable variable. The GLM used type 3 sums of squares, with all pairwise differences produced among the least squares means. Because 3 genetic models (AA vs non-AA; AB vs non-AB; BB vs non-BB) were tested for each of the 334,563 SNPs, a total of 1,003,689 tests were performed. The Benjamini and Hochberg (BH) procedure was used to control for the expected proportion of FDR. FDR corrections were obtained from PROC MULTTEST (SAS Institute, Cary, N.C.), which produces BH adjustments to original analytical P values. […]"}}}
{"smiles": "COc1cc(C(C)=O)ccc1OCCCN1CCC(c2noc3cc(F)ccc23)CC1", "note": "[Iloperidone, 1-[4-[3-[4-(6-fluoro-1,2-benzisoxazol-3-yl)-1-piperidinyl]propoxy]-3-methoxyphenyl]ethanone]", "values": [{"measurement": "torsades de pointes in treated patients", "setting": "[1]", "value": "no evidence to date indicates that any patient treated with iloperidone has experienced torsades de pointes"}, {"measurement": "mean change in QT (QTcF) from baseline to Day 14", "setting": "[2]; rs993648 (CERKL) genotype CC, N=50", "value": 17.02, "unit": "ms"}, {"measurement": "mean change in QT (QTcF) from baseline to Day 14", "setting": "[2]; rs993648 (CERKL) genotype CT (heterozygous), N=80", "value": 4.50, "unit": "ms"}, {"measurement": "mean change in QT (QTcF) from baseline to Day 14", "setting": "[2]; rs993648 (CERKL) genotype CT (heterozygous), N=80, listed as iloperidone", "value": 4.5, "unit": "ms"}, {"measurement": "mean change in QT (QTcF) from baseline to Day 14", "setting": "[2]; rs993648 (CERKL) genotype Non-CT (homozygous), N=94", "value": 17.81, "unit": "ms"}, {"measurement": "mean change in QT (QTcF) from baseline to Day 14", "setting": "[2]; rs993648 (CERKL) genotype Non-CT (homozygous), N=94, listed as iloperidone", "value": 17.8, "unit": "ms"}, {"measurement": "mean change in QT (QTcF) from baseline to Day 14", "setting": "[2]; rs993648 (CERKL) genotype TT, N=44", "value": 18.72, "unit": "ms"}, {"measurement": "mean change in QT (QTcF) from baseline to Day 14", "setting": "[2]; rs3924426 (SLCO3A1) genotype CC, N=5", "value": -7.00, "unit": "ms"}, {"measurement": "mean change in QT (QTcF) from baseline to Day 14", "setting": "[2]; rs3924426 (SLCO3A1) genotype CT, N=43", "value": 3.64, "unit": "ms"}, {"measurement": "mean change in QT (QTcF) from baseline to Day 14", "setting": "[2]; rs3924426 (SLCO3A1) genotype Non-TT, N=48", "value": 2.53, "unit": "ms"}, {"measurement": "mean change in QT (QTcF) from baseline to Day 14", "setting": "[2]; rs3924426 (SLCO3A1) genotype Non-TT, N=48, listed as iloperidone", "value": 2.5, "unit": "ms"}, {"measurement": "mean change in QT (QTcF) from baseline to Day 14", "setting": "[2]; rs3924426 (SLCO3A1) genotype TT, N=135", "value": 14.99, "unit": "ms"}, {"measurement": "mean change in QT (QTcF) from baseline to Day 14", "setting": "[2]; rs3924426 (SLCO3A1) genotype TT, N=135, listed as iloperidone", "value": 15.0, "unit": "ms"}, {"measurement": "mean change in QT (QTcF) from baseline to Day 14", "setting": "[2]; rs4799915 (BRUNOL4) genotype CC, N=48", "value": 2.88, "unit": "ms"}, {"measurement": "mean change in QT (QTcF) from baseline to Day 14", "setting": "[2]; rs4799915 (BRUNOL4) genotype CC, N=48, listed as iloperidone", "value": 2.9, "unit": "ms"}, {"measurement": "mean change in QT (QTcF) from baseline to Day 14", "setting": "[2]; rs4799915 (BRUNOL4) genotype CT, N=78", "value": 13.52, "unit": "ms"}, {"measurement": "mean change in QT (QTcF) from baseline to Day 14", "setting": "[2]; rs4799915 (BRUNOL4) genotype Non-CC, N=132", "value": 14.46, "unit": "ms"}, {"measurement": "mean change in QT (QTcF) from baseline to Day 14", "setting": "[2]; rs4799915 (BRUNOL4) genotype Non-CC, N=132, listed as iloperidone", "value": 14.5, "unit": "ms"}, {"measurement": "mean change in QT (QTcF) from baseline to Day 14", "setting": "[2]; rs4799915 (BRUNOL4) genotype TT, N=54", "value": 15.81, "unit": "ms"}, {"measurement": "mean change in QT (QTcF) from baseline to Day 14", "setting": "[2]; rs4933824 (NRG3) genotype GG, N=124", "value": 15.33, "unit": "ms"}, {"measurement": "mean change in QT (QTcF) from baseline to Day 14", "setting": "[2]; rs4933824 (NRG3) genotype GG, N=124, listed as iloperidone", "value": 15.3, "unit": "ms"}, {"measurement": "mean change in QT (QTcF) from baseline to Day 14", "setting": "[2]; rs4933824 (NRG3) genotype GT, N=47", "value": 4.62, "unit": "ms"}, {"measurement": "mean change in QT (QTcF) from baseline to Day 14", "setting": "[2]; rs4933824 (NRG3) genotype Non-GG, N=57", "value": 4.41, "unit": "ms"}, {"measurement": "mean change in QT (QTcF) from baseline to Day 14", "setting": "[2]; rs4933824 (NRG3) genotype Non-GG, N=57, listed as iloperidone", "value": 4.4, "unit": "ms"}, {"measurement": "mean change in QT (QTcF) from baseline to Day 14", "setting": "[2]; rs4933824 (NRG3) genotype TT, N=10", "value": 3.41, "unit": "ms"}, {"measurement": "mean change in QT (QTcF) from baseline to Day 14", "setting": "[2]; rs7142881 (NUBPL) genotype AA, N=28", "value": 17.65, "unit": "ms"}, {"measurement": "mean change in QT (QTcF) from baseline to Day 14", "setting": "[2]; rs7142881 (NUBPL) genotype AG, N=71", "value": 16.35, "unit": "ms"}, {"measurement": "mean change in QT (QTcF) from baseline to Day 14", "setting": "[2]; rs7142881 (NUBPL) genotype GG, N=79", "value": 5.67, "unit": "ms"}, {"measurement": "mean change in QT (QTcF) from baseline to Day 14", "setting": "[2]; rs7142881 (NUBPL) genotype GG, N=79, listed as iloperidone", "value": 5.7, "unit": "ms"}, {"measurement": "mean change in QT (QTcF) from baseline to Day 14", "setting": "[2]; rs7142881 (NUBPL) genotype Non-GG, N=99", "value": 16.71, "unit": "ms"}, {"measurement": "mean change in QT (QTcF) from baseline to Day 14", "setting": "[2]; rs7142881 (NUBPL) genotype Non-GG, N=99, listed as iloperidone", "value": 16.7, "unit": "ms"}, {"measurement": "mean change in QT (QTcF) from baseline to Day 14", "setting": "[2]; rs17054392 (PALLD) genotype CC, N=2", "value": 17.33, "unit": "ms"}, {"measurement": "mean change in QT (QTcF) from baseline to Day 14", "setting": "[2]; rs17054392 (PALLD) genotype CT (heterozygous), N=30", "value": -0.69, "unit": "ms"}, {"measurement": "mean change in QT (QTcF) from baseline to Day 14", "setting": "[2]; rs17054392 (PALLD) genotype CT (heterozygous), N=30, listed as iloperidone", "value": -0.7, "unit": "ms"}, {"measurement": "mean change in QT (QTcF) from baseline to Day 14", "setting": "[2]; rs17054392 (PALLD) genotype Non-CT, N=153", "value": 14.16, "unit": "ms"}, {"measurement": "mean change in QT (QTcF) from baseline to Day 14", "setting": "[2]; rs17054392 (PALLD) genotype Non-CT, N=153, listed as iloperidone", "value": 14.2, "unit": "ms"}, {"measurement": "mean change in QT (QTcF) from baseline to Day 14", "setting": "[2]; rs17054392 (PALLD) genotype TT, N=151", "value": 14.12, "unit": "ms"}]}
